# Experimental data as given in patent publication US11851710B2, “Methods and materials for identifying metastatic malignant skin lesions and treating skin cancer” (Mayo Foundation for Medical Education and Research, priority 2014, dated 2023).
# Several values for one entry are separate records, joined by “and”; a condition that tells them apart may be missing. Identical values can stand only once. Like-named read-outs stand apart in the source and are kept apart here.
# Key:
# [1] = Tolerability of i.m. Pentamidine in nude mice with intradermal M12 xenografts; type: in vivo; conditions: six consecutive days, female nude mice
# Method: (§1) To determine whether Pentamidine reduces SPP1 expression in vivo, M12 cells were injected intradermally into female nude mice and left to grow until xenograft tumors formed (FIGS. 15H and 15I). Then, four different doses of Pentamidine were injected intramuscularly (i.m.) into groups of three mice for six consecutive days. It was previously shown that serum concentration in patients injected with 4 mg/kg Pentamidine i.m. daily (FDA labeling) range from 0.2-1.4 μg/mL (0.3-2.4 μM). In rats, slightly lower levels can be achieved using 10 mg/kg i.m. daily (0.1-0.4 μg/mL) (Bernard et al., J. Inf. Dis. 152:750-754 (1985) and Waalkes et al., Clin. Pharma. Therap. 11:505-512 (1969)). In the current study, at the highest Pentamidine dose (80 mg/kg/daily), all mice died. Mice survived at 40 mg/kg/day, but appeared sick. […] Tumors were subsequently harvested, lysed, and analyzed by quantitative PCR. All doses of Pentamidine led to a reduction of SPP1, β3 integrin, and t-PA (PLAT) mRNA expression in tumor tissue (FIG. 15J).
# β3 integrin mRNA = β3 integrin mRNA in M12 xenograft tumor tissue by quantitative PCR; type: in vivo, mice; conditions: all doses i.m. for six days
# Source text: (§2) FIGS. 15A-15J illustrate that pentamidine inhibits SPP1 expression, proliferation, and invasion of melanoma cells. […] FIGS. 15B-15D illustrate that pentamidine inhibits SPP1 promoter activity in the DUAL-GLO® assay (FIG. 15B), but also by quantitative PCR in normal WM858 (FIG. 15C) and M12 cells (FIG. 15D). […] FIG. 15I is a chart illustrating that pentamidine injections reduce SPP1, ([…], and t-PA (PLAT) mRNA expression in M12 PDX. Average of three mice is shown. PENTA, Pentamidine; DABRA, Dabrafenib. WM858 and M12 are B-rafV600E metastatic melanoma cells.
# as §1, with “(1969)).” for “(1969)). In the current study, at the highest Pentamidine dose (80 mg/kg/daily), all mice died. Mice survived at 40 mg/kg/day, but appeared sick.”, “All doses of Pentamidine led to a reduction of SPP1, β3 integrin, and t-PA (PLAT) mRNA expression in tumor tissue (FIG. 15J).” left out
# M12 cells [2] = assay: M12 invasion into Matrigel-embedded scratch wounds; type: cell-based, human; conditions: 2 mg/mL Matrigel, compared with Dabrafenib
# Source text: as §2
# (§3) Pentamidine inhibited SPP1 mRNA in both WM858 (FIG. 15C) and M12 cells (FIG. 15D). […] Next, a red-fluorescent nuclear protein was stably expressed in M12 cells to automatically count nuclei over time (using the IncuCyte ZOOM system, Essen Bioscience), a surrogate measure of cell proliferation. Pentamidine reduced M12 proliferation with an ED50 of 40 μM.
# [3] = rats, 10 mg/kg i.m. daily; cited from earlier work
# t-PA (PLAT) = assay: Expression of t-PA (PLAT) in melanoma cells; type: cell-based; conditions: FIG. 15E
# Source text: as §2, §3
# SPP1 mRNA [4] = assay: SPP1 mRNA by quantitative PCR in M12 cells; type: cell-based, human
# Source text: as §2, §3
# SPP1 mRNA [5] = assay: SPP1 mRNA in M12 xenograft tumor tissue by quantitative PCR; type: in vivo, mice; conditions: all doses i.m. for six days
# Source text: as §2
# as §1, with “(1969)).” for “(1969)). In the current study, at the highest Pentamidine dose (80 mg/kg/daily), all mice died. Mice survived at 40 mg/kg/day, but appeared sick.”, “All doses of Pentamidine led to a reduction of SPP1, β3 integrin, and t-PA (PLAT) mRNA expression in tumor tissue (FIG. 15J).” left out
# t-PA (PLAT) mRNA = t-PA (PLAT) mRNA in M12 xenograft tumor tissue by quantitative PCR; type: in vivo, mice; conditions: all doses i.m. for six days
# Source text: as §2
# as §1, with “(1969)).” for “(1969)). In the current study, at the highest Pentamidine dose (80 mg/kg/daily), all mice died. Mice survived at 40 mg/kg/day, but appeared sick.”, “All doses of Pentamidine led to a reduction of SPP1, β3 integrin, and t-PA (PLAT) mRNA expression in tumor tissue (FIG. 15J).” left out
# SPP1 promoter = SPP1 promoter dual luciferase (DUAL-GLO) screen of LOPAC library in WM858 cells; type: cell-based; conditions: WM858 cells with luciferase-tagged SPP1 promoter
# Source text: FIG. 14 depict the luciferase construct for high-throughput screening. Genomic structure of the SPP1 gene is shown as well as a targeting approach. A DNA double-strand break was induced in exon (E) 2 of SPP1, 3′ of the ATG start codon by a custom-made zinc finger nuclease (ZFN), arrow. A targeting vector with 500 bp homology arms (HA, middle), Hygromycin resistance (HYGRO), a target promoter-driven firefly luciferase (LUC2P), and a CMV-pomoter driven renilla luciferase (HRLUC) was offered for repair at the time of the double-strand break. PA, PA terminator signal. Blue boxes, untranslated region; black boxes, translated region.
# Osteopontin (SPP1) is a proto-typical cancer-associated extracellular matrix gene and ligand of αv and α5β1 integrins. SPP1 is highly overexpressed in melanoma (Talantov et al., Clin. Cancer Res. 11:7234-42 (2005)) and its upregulation correlates with metastasis risk (Conway et al., Clin. Cancer Res. 15:6939-6946 (2009) and Mitra et al., Br. J. Cancer 103:1229-1236 (2010)). To rapidly screen chemical compounds for their ability to inhibit SPP1 expression in vitro, the endogenous SPP1 promoter of WM858 melanoma cells was tagged with a dual luciferase system using zinc finger nucleases. The SPP1-promoter drives firefly luciferase tagged with a protein degradation sequence (hPEST). A CMV-promoter driven renilla luciferase was used as a loading control (FIG. 14). […]
# M12 cells [6] = assay: M12 proliferation, automated count of red-fluorescent nuclei (IncuCyte ZOOM); type: cell-based; conditions: Homo sapiens, nuclei counted over time, read-out: M12 proliferation ED50
# Method: Automated quantification of cell proliferation was by the INCUCYTE™ kinetic imaging system (Essen Bioscience). Approximately 2,000 cells were seeded into a 96-well cell culture dish, eight replicates per condition over the indicated time. Data analysis was with the INCUCYTE ZOOM software package.
# as §3
# β3 integrin (ITGB3) = assay: Expression of β3 integrin (ITGB3) in melanoma cells; type: cell-based; conditions: FIG. 15E
# Source text: as §2, §3
# in vitro [7] = type: cell-based; conditions: human
# Method: as §3
# [8] = patients, 4 mg/kg i.m. daily (FDA labeling); cited from earlier work
# SPP1 mRNA [9] = assay: SPP1 mRNA by quantitative PCR in WM858 cells; type: cell-based
# Source text: as §2, §3
# in vitro [10] = type: cell-based; conditions: human; remark: listed apart in the source
# Method: as §3
# β3 integrin = assay: Cell surface β3 integrin expression by flow cytometry after overnight drug incubation; type: cell-based; conditions: B-rafV600E melanoma cells, 5 μM
# Method: (§4) FIGS. 13A-13P illustrate B-raf^V600E inhibits FAK to promote integrin surface expression. FIG. 13A: shRNAs 841, 102 and NC were induced in WM858 cells by IPTG for 5 days (n=4) followed by RNA quantitation. Genes regulated at 0 vs. 0.05 mM IPTG in 841 and 102 but not NC cells are shown. These were: ITGB3 (orange), FAK (blue). Light orange, light blue: up- or down-regulation, respectively, by either 841 or 102 shRNA. FIG. 13B: WM858 cells were transfected with FAK or EGFP cDNA. Regulated genes, FAK over EGFP cells, are shown in orange (up) or blue (down) (n=4). FIG. 13C: Flow cytometry of NC, 841 and 102 cells (un-induced vs. 0.05 mM IPTG for 5 days). FIG. 13D: Integrin cell surface mean intensities; mean.+−.s.d.; n=3; *, p<0.05; p values, Student's t-test; ns, not significant. FIG. 13E: Visualization of focal adhesions by paxillin staining on micropatterned fibronectin disks. FIGS. 13F and 13G: Proliferation speed in the absence (FIG. 13F) or presence (FIG. 13G) of FAK shRNAs; mean.+−.s.d.; n=8; *, p<0.05; p values, Student's t-test; ns, not significant. FIGS. 13H and 13I: Scratch wound healing in IPTG-induced cells; representative experiment (n=3). FIGS. 13J and 13K: Effect of IPTG-induced FAK knock-down on total (t) and phospho (p)-ERK; mean.+−.s.d.; n=4; *, p<0.05; p values, Student's t-test. FIG. 13L: Cell surface β1 and β3 integrin expression (flow cytometry) in B-raf^V600E and wild-type cells after overnight drug incubation; % expression relative to DMSO is shown. FIGS. 13M-13O: FAK/ERK levels in NHM and WM858 after overnight drug incubation (FIG. 13M); quantification of FAK (FIG. 13N) and ERK phosphorylation (FIG. 13O); mean.+−.s.d.; n=4; *, p<0.05; p values, Student's t-test. FIG. 13P: ERK activity in NC, 841 and 102 cells (0.05 mM IPTG for 5 days) after overnight drug incubation.
# Isopropyl β-D-1-thiogalactopyranoside (IPTG), 4′,6-Diamidino-2-phenylindole dihydrochloridemitomycin (DAPI), blebbistatin and PF-573228 were purchased from Sigma-Aldrich. Dabrafenib (GSK2118436) was purchased from Selleckchem. FAK antibody (06-543) was from EMD MILLIPORE®. FAK pY397 (44624G) antibody was from Life Technologies. Total ERK (9102) and phospho-ERK (4370) antibodies were from Cell Signaling. Paxillin (610051), ITGB3 (555754), ITGB1 (555443) and mouse IgG1 kappa (555749) antibodies were from BD Transduction Labs. Drugs were used at 5 μM final concentration. EGFP control cDNA was from (Lonza). […]
# PYK2, a FAK-like tyrosine kinase, could not be detected in WM858 cells, irrespective of endogenous FAK levels. WM858 cells carrying control (NC) or FAK-specific shRNAs (841 and 102) were then exposed to IPTG for 5 days, and changes in adhesion gene expression were subsequently quantified by PCR. […]
# β1 integrin = assay: Cell surface β1 integrin expression by flow cytometry after overnight drug incubation; type: cell-based; conditions: 5 μM
# Method: as §4
# Isopropyl β-D-1-thiogalactopyranoside (IPTG), 4′,6-Diamidino-2-phenylindole dihydrochloridemitomycin (DAPI), blebbistatin and PF-573228 were purchased from Sigma-Aldrich. Dabrafenib (GSK2118436) was purchased from Selleckchem. FAK antibody (06-543) was from EMD MILLIPORE®. FAK pY397 (44624G) antibody was from Life Technologies. Total ERK (9102) and phospho-ERK (4370) antibodies were from Cell Signaling. Paxillin (610051), ITGB3 (555754), ITGB1 (555443) and mouse IgG1 kappa (555749) antibodies were from BD Transduction Labs. Drugs were used at 5 μM final concentration. EGFP control cDNA was from (Lonza). FAK cDNA was obtained from A. Huttenlocher, Addgene plasmid number 35039 (Chan et al., J. Biol. Chem., 285:11418-26 (2010)).
# PYK2, a FAK-like tyrosine kinase, could not be detected in WM858 cells, irrespective of endogenous FAK levels. WM858 cells carrying control (NC) or FAK-specific shRNAs (841 and 102) were then exposed to IPTG for 5 days, and changes in adhesion gene expression were subsequently quantified by PCR. […] Moreover, Dabrafenib-induced blockage of ERK activity could be partially reversed by a complete FAK knock-down in 102 cells (FIG. 13P).
SMILES,survival / tolerability of mice ([1]; 40 mg/kg/day i.m.),survival / tolerability of mice ([1]; 80 mg/kg/daily i.m.),"survival / tolerability of mice ([1]; other two doses, specifically 8 mg/kg/day i.m.)",β3 integrin mRNA expression in tumor tissue (β3 integrin mRNA),Matrigel invasion (M12 cells [2]),serum concentration [3] [ng/mL],expression of t-PA (PLAT) (t-PA (PLAT)),SPP1 mRNA (SPP1 mRNA [4]),SPP1 mRNA expression in tumor tissue (SPP1 mRNA [5]),t-PA (PLAT) mRNA expression in tumor tissue (t-PA (PLAT) mRNA),"Normalized ratio: firefly signal normalized to renilla signal, then to DMSO-treated control wells (SPP1 promoter)",EC50 (M12 cells [6]) [µM],expression of β integrin (β3 integrin (ITGB3)),EC50 (in vitro [7]) [µM],serum concentration [8],SPP1 mRNA (SPP1 mRNA [9]),EC50 (in vitro [10]) [µM],β3 integrin surface levels (β3 integrin),β1 integrin surface levels (β1 integrin; B-raf wild-type melanoma cells),β1 integrin surface levels (β1 integrin; B-rafV600E melanoma cells)
"N=C(N)c1ccc(OCCCCCOc2ccc(C(=N)N)cc2)cc1 [Pentamidine, 4,4′-[pentane-1,5-diylbis(oxy)]dibenzenecarboximidamide]",appeared sick,all mice died,well tolerated,reduction,more effectively than Dabrafenib,100 to 400,reduced,inhibited,reduction,reduction,< 0.25,40,reduced,> 100,0.2-1.4 μg/mL and 0.3-2.4 μM,inhibited,> 100,–,–,–
Cc1ccc2c(c1)C(=O)C1(O)CCN(c3ccccc3)C1=N2 (centres unmarked) [blebbistatin],–,–,–,–,–,–,–,–,–,–,–,–,–,–,–,–,–,induced,not,induced
